Data reported in the NIST ThermoML archive (doi:10.1016/j.jct.2018.09.027).

Assay: molar heat capacity at constant pressure
Details: 100 kPa, Crystal, DSC

O=c1oc2c(O)c(O)cc3c(=O)oc4c(O)c(O)cc1c4c23 [2,3,7,8-tetrahydroxychromeno[5,4,3-cde]chromene-5,10-dione]
Details | molar heat capacity at constant pressure [J/K/mol]
260.15 K | 292.07
261.15 K | 292.68
262.15 K | 293.58
263.15 K | 294.64
264.15 K | 295.85
265.15 K | 297.06
266.15 K | 297.97
267.15 K | 298.87
268.15 K | 299.93
269.15 K | 301.59
270.15 K | 303.41
271.15 K | 303.41
272.15 K | 304.01
273.15 K | 305.37
274.15 K | 307.49
275.15 K | 308.39
276.15 K | 308.09
277.15 K | 308.54
278.15 K | 310.36
279.15 K | 311.57
280.15 K | 311.26
281.15 K | 312.62
282.15 K | 314.29
283.15 K | 315.19
284.15 K | 315.95
285.15 K | 316.25
286.15 K | 317.16
287.15 K | 318.97
288.15 K | 320.33
289.15 K | 319.72
290.15 K | 320.48
291.15 K | 321.84
292.15 K | 323.35
293.15 K | 323.05
294.15 K | 324.26
295.15 K | 325.47
296.15 K | 326.4
297.15 K | 327.73
298.15 K | 328.85
299.15 K | 329.64
300.15 K | 330.7
301.15 K | 331.91
302.15 K | 332.12
303.15 K | 333.63
304.15 K | 334.99
305.15 K | 335.69
306.15 K | 336.45
307.15 K | 337.53
308.15 K | 338.02
309.15 K | 339.27
310.15 K | 339.49
311.15 K | 340.77
312.15 K | 341.16
313.15 K | 342.26
314.15 K | 343.3
315.15 K | 343.78
316.15 K | 345.03
317.15 K | 346.85
318.15 K | 347.5
319.15 K | 348.3
320.15 K | 349.21
321.15 K | 350.81
322.15 K | 351.92
323.15 K | 352.53
324.15 K | 353.13
325.15 K | 354.43
326.15 K | 355.55
327.15 K | 356.86
328.15 K | 357.07
329.15 K | 358.38
330.15 K | 359.69
331.15 K | 361.39
332.15 K | 362.3
333.15 K | 363.1
334.15 K | 364.21
335.15 K | 365.02
336.15 K | 366.23
337.15 K | 367.13
338.15 K | 368.24
339.15 K | 369.55
340.15 K | 370.36
341.15 K | 370.96
342.15 K | 371.07
343.15 K | 372.48
344.15 K | 373.08
345.15 K | 373.69
346.15 K | 374.1
347.15 K | 375.31
348.15 K | 376.31
349.15 K | 377.02
350.15 K | 378.82
351.15 K | 379.03
352.15 K | 379.54
353.15 K | 381.35
354.15 K | 383.99
355.15 K | 385.91
356.15 K | 385.3
357.15 K | 386.51
358.15 K | 387.62
359.15 K | 388.02
360.15 K | 390.04
361.15 K | 391.3
362.15 K | 392.55
363.15 K | 393.1
364.15 K | 393.5
365.15 K | 394.2
366.15 K | 395.1
367.15 K | 396
368.15 K | 396.5
369.15 K | 397.3
370.15 K | 397.8
371.15 K | 398
372.15 K | 399.5
373.15 K | 400.1
374.15 K | 401.2
375.15 K | 402.5
376.15 K | 403.1
377.15 K | 403.8
378.15 K | 404.5
379.15 K | 405.3
380.15 K | 406.12
381.15 K | 407.6
382.15 K | 408.2
383.15 K | 409.5
384.15 K | 410.1
385.15 K | 411.31
386.15 K | 412.22
387.15 K | 413.52
388.15 K | 414.82
389.15 K | 415.43
390.15 K | 416.64
391.15 K | 417.54
392.15 K | 418.85
393.15 K | 419.15
394.15 K | 420.36
395.15 K | 421.26
396.15 K | 421.57
397.15 K | 422.17
398.15 K | 423.08
399.15 K | 423.98
400.15 K | 424.59
401.15 K | 424.59
402.15 K | 425.19
403.15 K | 426.4
404.15 K | 427.31
405.15 K | 427
406.15 K | 427.31
407.15 K | 427.91
408.15 K | 429.42
409.15 K | 430.03
410.15 K | 430.78
411.15 K | 431.39
412.15 K | 432.44
413.15 K | 432.9
414.15 K | 433.5
415.15 K | 434.56
416.15 K | 435.77
417.15 K | 436.2
418.15 K | 437
419.15 K | 438.2
420.15 K | 439.1
421.15 K | 440.5
422.15 K | 441.2
423.15 K | 442.3
424.15 K | 443.93
425.15 K | 444.5
426.15 K | 444.8
427.15 K | 445.1
428.15 K | 445.9
429.15 K | 446.2
430.15 K | 446.8
431.15 K | 447.3
432.15 K | 448.2
433.15 K | 448.6
434.15 K | 449.4
435.15 K | 450.58
436.15 K | 451.79
437.15 K | 452.39
438.15 K | 452.69
439.15 K | 452.99
440.15 K | 453.9
441.15 K | 454.71
442.15 K | 455.32
443.15 K | 455.41
444.15 K | 455.71
445.15 K | 456.02
446.15 K | 457.53
447.15 K | 457.83
448.15 K | 458.43
449.15 K | 459.04
450.15 K | 459.64
451.15 K | 459.94
452.15 K | 460.2
453.15 K | 460.85
454.15 K | 461.14
455.15 K | 460.85
456.15 K | 461.3
457.15 K | 461.76
458.15 K | 462.11
459.15 K | 462.61
460.15 K | 463.82
461.15 K | 464.57
462.15 K | 465.08
463.15 K | 466.38
464.15 K | 467.05
465.15 K | 468.71
466.15 K | 468.5
467.15 K | 469
468.15 K | 469.5
469.15 K | 470.1
470.15 K | 470.8
471.15 K | 471.2
472.15 K | 471.5
473.15 K | 472.94
474.15 K | 473.85
475.15 K | 474.15
476.15 K | 474.75
477.15 K | 475.05
478.15 K | 476.26
479.15 K | 477.17
480.15 K | 477.47
481.15 K | 478.38
482.15 K | 479.59
483.15 K | 480.19
484.15 K | 480.39
485.15 K | 481.19
486.15 K | 482
487.15 K | 482.31
488.15 K | 482.61
489.15 K | 483.31
490.15 K | 484.21
491.15 K | 485.63
492.15 K | 486.93
493.15 K | 487.54
494.15 K | 488.84
495.15 K | 489.26
496.15 K | 489.26
497.15 K | 489.56
498.15 K | 489.26
499.15 K | 490.77
500.15 K | 491.28
501.15 K | 492.18
502.15 K | 493.28
503.15 K | 494.19
504.15 K | 495
505.15 K | 495.3
506.15 K | 495
507.15 K | 494.7
508.15 K | 495
509.15 K | 495
510.15 K | 495.3
511.15 K | 496
512.15 K | 497.72
513.15 K | 497.82
514.15 K | 498.32
515.15 K | 499.23
516.15 K | 499.5
517.15 K | 500.1
518.15 K | 501.3
519.15 K | 501.8
520.15 K | 502.5
521.15 K | 503.1
522.15 K | 503.6
